Source: patent publication US20250325527A1, “KIF18A INHIBITION FOR TREATMENT OF CANCER” (AMGEN INC., priority 2022, published 2025)

Assays:
[1] = tested on: breast and ovarian cancer cell lines (DNA barcoded human cancer cell lines); assay: PRISM screen, 5-day cell growth assay of pooled DNA barcoded cancer cell lines; format: cell-based; details: TP53 MUT cell lines, 5 days
Protocol: FIG. 1 is a series of scatter plots of pooled barcoded cancer cell lines treated in a 5-day cell growth assay with DMSO or KIF18Ai C9 (8-point concentration range), relative abundance of unique cell line barcodes was measured to estimate cell viability. KIF18Ai C9 AUC values versus CIN features (whole genome doubling (WGD), ploidy, aneuploidy score (AS)) plus TP53 status in breast and ovarian cancer cell lines (n=58). Scatter plots show KIF18Ai C9 AUC versus CIN features plus TP53 status with mean AUC indicated for each group. Colored cell lines overlap with KIF18Ai C9 sensitivity in nonbarcoded screens. Dotted line indicates AUC value of 0.65. ** p=0.0037, *** p=0.0004 by unpaired t-test.
To investigate the anti-proliferative effects of KIF18A inhibitors, a PRISM (profiling relative inhibition simultaneously in mixtures) screen was conducted on a panel of DNA barcoded human cancer cell lines. Pooled cancer cell lines were treated with DMSO or increasing concentrations of KIF18A inhibitor, Compound C9, for 5 days, and then cell viability was determined by measuring the abundance for each unique DNA barcode. We divided the cell lines by CIN features (WGD, ploidy, aneuploidy score) and further subdivided them based on TP53 status. In the TP53^MUT cancer cell lines, we observed a significant enrichment for KIF18A inhibitor sensitivity in cell lines that were WGD+ with >2.1 ploidy (55%, 12 of 22 sensitive) relative to WGD− with ≤2.1 ploidy (21%, 4 of 19 sensitive) (p=0.0004).

HCC1806 cells [2] = assay: mitotic duration and fate (slippage) by live-cell timelapse imaging of cells arrested with DMN; format: cell-based
Protocol: To define the capacity of KIF18Ai-resistant HCC1806 clonal lines to maintain the mitotic state, we arrested cells indefinitely in mitosis with the Eg5 inhibitor dimethylenastron (DMN) which causes spindle collapse and chronic SAC activation^28,29. We then monitored mitotic slippage by live-cell timelapse imaging.
Fluorescent cell lines were seeded into either 4-chamber, 35-mm glass-bottom culture dishes (Greiner), 4-well chamber slides (Ibidi), or 8-well chamber slides (Ibidi). The day of the experiment, cells were transferred to CO2-independent base medium (ThermoFischer) with the appropriate additives for each cell line and maintained at 37° C. in an environmental control station. Long-term time-lapse imaging was performed using a Deltavision Elite system (GE Healthcare) controlling a Scientific CMOS camera (pco.edge 5.5.). Images were acquired with an Olympus 40×1.4 NA oil objective. For general mitotic phenotypes, cells were treated as indicated, then images were captured every 5 min in 9×3 μm z-sections in respective fluorescent channels and by differential inference contrast. For CyclinB1-EYFP experiments, cells were treated as indicated, then images were captured every 2.5 min in 9×3 μm z-sections in respective fluorescent channels and by differential inference contrast. Phenotypic evaluation and intensity measurements were taken from maximum intensity projected 2D time-lapse images. Mitotic duration was calculated as the time taken from nuclear envelope breakdown to the onset of anaphase. Metaphase to anaphase duration was calculated as the time from the appearance of the last, uninterrupted metaphase plate to the onset of anaphase. Analysis of Cyclin B1-EYFP mitotic intensity was measured from NEBD through 30 min past anaphase using FIJI. Intensity traces were manually aligned to the metaphase to anaphase inflection point, then normalized in R. If traces never inflected, they were aligned to 30 min past NEBD.

HCC1806 cells [3] = assay: 5-day MTT endpoint viability assay, HCC1806
Protocol: The following day, drugs were added as indicated and cells were cultured for 5 days. […] 100 μL 10% SDS, 0.01M HCl solution was then added to each well to dissolve the formazan crystals. Absorbance was measured with a spectrophotometer at 570 nm. % Viability=(Signal[sample]−Signal[DMN])/(Signal [DMSO]−Signal [DMN])×100 unless specifically noted. % Toxicity=100%−Viability. % Viability rescue=(Signal [sample, KIF18Ai]−Signal[WT, KIF18Ai])/(Signal[WT, DMSO]−Signal [WT, KIF18Ai])×100. Drug titration curves were derived using the equation for “[Inhibitor] vs. response−Variable slope (four-parameter)” in GraphPad Prism 7 for Mac OS X (GraphPad Software, La Jolla, USA).

[4] = tested on: panel of sensitive and insensitive cell lines (RPE1, MCF10A, HCT116, DLD1, MCF7, MDA-MB-157, HCC1806, HeLa, OVCAR-3, OVCAR-8); assay: 5-day MTT endpoint viability assay, cell line panel; format: cell-based; details: sensitive cell lines co-treated with KIF18Ai and low doses of Reversine (30 nM, FIG. 9E)
Text: To investigate the determinants of KIF18A dependency in cancer, we used AM-1882, a highly specific small molecule KIF18A inhibitor (KIF18Ai) developed by Amgen Inc^21,23. Treatment with KIF18Ai causes stable binding of the KIF18A motor domain to microtubules^23, leading to the relocation of KIF18A in mitosis from kinetochores to spindle poles in all the cell lines tested (FIG. 8a and FIG. 15a). This mis-localization phenocopies the effect of KIF18A loss^21, likely by blocking KIF18A-induced stabilization of microtubule plus ends^16. We examined the effect of KIF18Ai on cell viability using a 5-day endpoint assay performed with non-transformed cells (RPE1 and MCF10A) and a panel of colon (HCT116, DLD1), breast (MCF7, MDA-MB-157, HCC1806), and ovarian (HeLa, OVCAR-3, OVCAR-8) cancer cell lines (FIG. 8b,c and FIG. 15b).

CC(C)(C)NS(=O)(=O)c1cccc(NC(=O)c2ccc(S(=O)(=O)NC(C)(C)C)cc2N2CCC3(CC2)CC3)c1 [Compound C9, 4-(N-(tert-butyl)sulfamoyl)-N-(3-(N-(tert-butyl)sulfamoyl)phenyl)-2-(6-azaspiro[2.5]octan-6-yl)benzamide]
cell lines sensitive to KIF18A inhibitor ([1]; WGD+ with >2.1 ploidy (12 of 22 sensitive)): 55%
cell lines sensitive to KIF18A inhibitor ([1]; WGD− with ≤2.1 ploidy (4 of 19 sensitive)): 21%
cell lines sensitive to KIF18A inhibitor ([1]; aneuploidy score >8 (16 of 34 sensitive)): 47%
cell lines sensitive to KIF18A inhibitor ([1]; aneuploidy score ≤8 (0 of 7 sensitive)): 0%

CC1(C)CC(=O)C2=C(C1)NC(=S)NC2c1cccc(O)c1 (stereo not drawn) [DMN, dimethylenastron]
slippage rate (HCC1806 cells [2]; Cyclin B1 knockout HCC1806): 93%
time spent in mitosis (HCC1806 cells [2]; Cyclin B1 knockout HCC1806): 11 h
rate of mitotic slippage (HCC1806 cells [2]; HSET knockout HCC1806): 27%
time in mitosis (HCC1806 cells [2]; HSET knockout HCC1806): 19 h
cell death (HCC1806 cells [2]; WT HCC1806): 75%
mitotic slippage (HCC1806 cells [2]; WT HCC1806): 25%
time in mitosis (average) (HCC1806 cells [2]; WT HCC1806): 25 h
rate of mitotic slippage (HCC1806 cells [2]; hypomorphic MAD1 HCC1806): 95%
time in mitosis (HCC1806 cells [2]; hypomorphic MAD1 HCC1806): 23 h

O=C1NC(=NCc2cccs2)S/C1=C\c1ccc2ncccc2c1 [RO-3306]
rescue of viability in KIF18Ai-treated cells (HCC1806 cells [3]; sub-saturating concentrations of RO-3306): robust rescue of viability

c1nc2nc(Nc3ccc(N4CCOCC4)cc3)nc(NC3CCCCC3)c2[nH]1 [Reversine]
rescue of KIF18Ai toxicity [4]: rescued KIF18Ai toxicity
time to exit mitosis (all cells) (HCC1806 cells [2]; SAC function abolished with Reversine, compared with DMN arrest): less than an hour
effect on cells (HCC1806 cells [3]; higher concentrations of Reversine): toxic to cells
rescue of KIF18Ai toxicity (HCC1806 cells [3]; low doses of Reversine, WT and UBE2S overexpressing HCC1806 treated with KIF18Ai): potent rescue of KIF18Ai toxicity
